Data reported in ChEMBL document CHEMBL5505997, “Synthesis and biological evaluation of novel peptidomimetic inhibitors of the coronavirus 3C-like protease” (Eur J Med Chem, 2024).

Tests used:
[1] = system: CCRF-CEM; assay: Cytotoxicity against human CEM cells assessed as reduction in cell viability; type: toxicity, cell-based; conditions: ccrf-cem
[2] = system: Huh-7; assay: Cytotoxicity against human Huh-7 cells assessed as reduction in cell viability; type: toxicity, cell-based; conditions: huh-7
[3] = Cytotoxicity against human PBMC cells assessed as reduction in cell viability; type: toxicity, cell-based; conditions: pbmc
[4] = Cytotoxicity against African green monkey Vero cells assessed as reduction in cell viability; type: toxicity, cell-based; conditions: chlorocebus sabaeus, vero
[5] = system: Human coronavirus OC43; assay: Antiviral activity against Human coronavirus OC43 infected in Vero cells assessed as reduction in viral yield preincubated with virus for 1 hr followed by washout and compound treatment and measured after 3 days by qRT-PCR analysis; type: functional, organism-based; conditions: Betacoronavirus 1, Vero; for EC90: 72 h, time 3 day
[6] = system: SARS-CoV-2; assay: Antiviral activity against SARS-CoV-2 infected in Vero cells assessed as reduction in viral yield measured after 48 hrs by qRT-PCR analysis; type: functional, organism-based; conditions: Severe acute respiratory syndrome coronavirus 2, Vero; for EC50: 48 h; for EC90: time 48 hrs

Row | SMILES | CC50 [1] [µM] | CC50 [2] [µM] | CC50 [3] [µM] | CC50 [4] [µM] | EC50 [5] [µM] | EC90 [5] [µM] | EC50 [6] [µM] | EC90 [6] [µM]
1 | CCOC(=O)/C=C/[C@H](C[C@@H]1CCCNC1=O)NC(=O)[C@H](CC(C)C)NC(=O)[C@H](Cc1cccc2ccccc12)NC(=O)c1cc(C)on1 | 33.4 | 51.4 | > 100 | > 100 | 7.3 | 9.7 | > 10 | > 10
2 | Cc1cc(C(=O)N[C@@H](Cc2cccc3ccccc23)C(=O)N[C@@H](CC(C)C)C(=O)N[C@@H](C[C@@H]2CCCNC2=O)C(O)C(=O)NC2CC2)no1 (stereo partly specified) | > 100 | > 100 | > 100 | > 100 | 36.7 | 87.4 | > 10 | > 10
3 | CC(C)C[C@H](NC(=O)[C@H](Cc1cccc2ccccc12)NC(=O)OCc1ccccc1)C(=O)N[C@H](C#N)C[C@@H]1CCCNC1=O | > 100 | > 100 | > 100 | > 100 | 0.7 | 5.1 | > 10 | > 10
4 | CC(C)C[C@H](NC(=O)[C@H](Cc1cccc2ccccc12)NC(=O)OCc1ccccc1)C(=O)N[C@H](C=O)CNC(=O)N1CCC1 | 43.6 | 43.6 | > 100 | > 100 | 18 | 84 | > 10 | > 10
5 | CC(C)C[C@H](NC(=O)[C@H](Cc1cccc2ccccc12)NC(=O)OCc1ccccc1)C(=O)N[C@H](C=O)Cn1ccnn1 | 25.3 | 25.3 | 35.7 | 35.7 | 53.5 | 99 | 4.7 | 9.5
6 | CC(C)C[C@H](NC(=O)[C@H](Cc1ccc(O)cc1)NC(=O)OCc1ccccc1)C(=O)N[C@H](C=O)C[C@@H]1CCCNC1=O | > 100 | > 100 | > 100 | > 100 | 8.5 | 47.6 | > 10 | > 10
7 | CC(C)C[C@H](NC(=O)[C@H](Cc1cccc2ccccc12)NC(=O)OCc1ccccc1)C(=O)N[C@H](C=O)C[C@@H]1CCCNC1=O | 24.3 | 38.9 | 42.4 | > 100 | 0.7 | 1 | 2.6 | 5.9
